Test: Human HepG2 cell viability assay in 384 well format
Type: toxicity, cell-based
Design: dose 125 nL, time 70.5 hour; cytotoxicity at 70.5 h: concentration not given beside the values
Conditions: HepG2 cells, read-out: Inhibition

Row | Compound | cytotoxicity at 70.5 h [%]
1 | O=C(c1cnc2c(cnn2C2CCCC2)c1)N1CCN(CCO)CC1 | 2.02
2 | COCCC(=O)N1CC2(CCN(c3ccccc3)C2)C1 | 3.88
3 | CN(C(=O)CCNC(=O)NC1CCCCC1)c1ccccc1 | 38.6
4 | CCn1cc(N)c(-c2nnc3n2CCC3)n1 | 13.1
5 | Cc1ccc(-c2nccn2-c2ccc(OC3CCN(C)CC3)cc2)o1 | 17
6 | O=C(NC1CC1)[C@H]1C[C@H]2OCC[C@H]2N(CC2CCOCC2)C1 | 22.7
7 | O=C(c1ccco1)N1CCN(Cc2nc(C3CC3)no2)CC1 | -5.91
8 | Cc1cccc(CN2CCC3(CCCN(C(=O)N(C)C)C3)C2=O)n1 (centres undefined) | -3.06
9 | CC(=O)N1CCC(c2cnc(NC3CCOCC3)cn2)CC1 | -6.84
10 | Cc1ccc(-n2cc(S(=O)(=O)Nc3cccc(C(=O)O)c3C)cn2)cc1 | -12.2
11 | Cc1csc(N2CCN(C(=O)Cc3cccs3)CC2)n1 | -2.84
12 | CCn1ccnc1C1CCN(C(=O)C(O)c2ccc(OC)cc2)CC1 (centres undefined) | 4.82
13 | CC(O)CC(C)(C)CNC(=O)Nc1cnn(-c2ccccc2F)c1 (centres undefined) | -4.35
14 | Cc1nccn1Cc1nnc(C2CCCN(c3ncccc3F)C2)n1C (centres undefined) | -17.5
15 | Cc1nn(C)c(N(C)C)c1CNC(C)COc1ccc(F)cc1F (centres undefined) | -8.01
16 | CCc1cnccc1C(=O)NC1CCN(Cc2ccccc2F)CC1 | -6.35
17 | CS(=O)(=O)N1C[C@@H]2CC[C@H](C1)N(C(=O)Cn1nc3ccccc3n1)C2 | 20.9
18 | Cc1ncsc1CN1C[C@@H]2COC[C@]2(C(=O)NCc2ccccn2)C1 | -9.2
19 | CC(C)c1noc(CN2CCN(C(=O)OC(C)(C)C)C(C)C2)n1 (centres undefined) | 7.76
20 | c1nc2n(c1CN1CCCC1)CCN(C1CCOCC1)CC2 | -7.69
21 | Cc1ccc(OCCN(C)C(=O)CCCC(N)=O)c(C)c1 | -5.93
22 | Cc1nnc(Nc2cccc(C3CCN(CCO)CC3)n2)s1 | -13.5
23 | CC1(C(=O)NCc2cccnc2Oc2ccc(F)c(F)c2)CCCNC1 (centres undefined) | 8.1
24 | CCN1CC(CN(C)Cc2nc(-c3ccc(F)cc3)oc2C)CC1=O (centres undefined) | 4.29
25 | CCn1c(CC2CCN(C(=O)c3cc(CC(C)C)on3)CC2)n[nH]c1=O | -2.52
26 | Fc1cnc(N2CC[C@@H]3O[C@@H](COCc4cccnc4)CC[C@@H]32)nc1 | -6.15
27 | CN1C[C@@H](C(=O)N(C)C)[C@@]2(CCc3ccccc3C(=O)N2)C1 | 0.772

Row | Compound | cytotoxicity at 70.5 h [%]
28 | Cc1ccsc1CN1C[C@@H]2CN(Cc3cccnc3)CCO[C@@H]2C1 | 10.4
29 | CN1C(=O)C2(CCN(Cc3cccnc3)CC2)c2cccc(F)c21 | -3.56
30 | COCc1nc(CN2CCN(c3ccc(OC)cc3)C(=O)C2C)no1 (centres undefined) | -27.3
31 | Clc1ccccc1-c1nc(CNC2CCc3ncnn3C2)cs1 (centres undefined) | -1.51
32 | COCCN(C)C[C@@H]1CCC[C@@H]2CN(c3ncccn3)C[C@@H]21 | -0.79
33 | Cc1nc(CN2C[C@@H]3CN(c4ncccn4)C[C@@H]3C2=O)cs1 | -10.3
34 | CSCc1noc(CNC(=O)[C@H]2CNC[C@@H](C(=O)N3CCCC3)C2)n1 | -14.4
35 | OC(COCc1ccc(Cl)cc1)CN1CC(n2cccn2)C1 (centres undefined) | -2.28
36 | CCC(O)CN(CC(=O)Nc1cc(C)no1)c1ccccc1 (centres undefined) | -3.59
37 | CN1CCC(N(C)C(=O)c2cnn(-c3ccccc3Br)c2N)CC1 | 0.0189
38 | Cc1c(Br)cccc1CSc1nnc(CO)n1C | 14
39 | c1cncc(-c2noc(CNC3CCCN(c4cccnn4)C3)n2)c1 (centres undefined) | 24.9
40 | O=C1NCC[C@]12CN(Cc1nccs1)C[C@H]2c1ccccc1 | -0.358
41 | CO[C@H]1CCN(C(=O)c2ccsc2)[C@@H]2CN(CC3CC3)C[C@H]12 | -7.14
42 | COc1ccc(C(O)CNC(=O)NCc2nc(C)cs2)cc1 (centres undefined) | -3.39
43 | Cc1sc2nc(CCN)nc(N(CCN(C)C)CC3CCCO3)c2c1C (centres undefined) | 5.16
44 | Cn1ncc(CN2CCc3onc(-c4cccc(F)c4)c3C2)c1C1CC1 | -11.6
45 | CCN(CC)Cc1ccc(C(=O)N2CCCC2Cn2cc(C)cn2)o1 (centres undefined) | 2.44
46 | CO[C@H]1CN(C(=O)c2cc3ccccc3[nH]2)CC[C@H]1N | 18.2
47 | c1ccc(N2CCC(NCCc3ccc(-n4cccn4)cc3)CC2)nc1 | 21.5
48 | CN(C)C(=O)N1CCC2(CCCN(c3ncccn3)C2)C1 (centres undefined) | 5.18
49 | CSCCC(=O)N1CCC(c2nnc(CN(C)CCO)n2C)CC1 | -2.23
50 | CC(=O)NCC(=O)N1CCC2(CC1)NC(=O)CC2c1cnn(C)c1 (centres undefined) | -8.17
51 | COCCN1CCN(Cc2noc(C3CC3)n2)CC1C (centres undefined) | 12.5
52 | Cc1ccc(CNC(=O)N(C)Cc2ccc([S+](C)[O-])cc2)s1 (centres undefined) | -6.72
53 | CN(C)c1ncc(-c2ccc(F)cc2)c(C2CNCCO2)n1 (centres undefined) | -2.95
54 | COc1cc(C)c(CN2CCC3(CC2)C(C(=O)O)CC(=O)N3C)cc1C (centres undefined) | 3.6

Row | Compound | cytotoxicity at 70.5 h [%]
55 | COCc1nc(C(=O)NS(=O)(=O)c2cc(F)ccc2F)cs1 | 20.7
56 | Cc1oc(C)c(C(=O)Nc2ccccn2)c1C | -10.7
57 | CC(NC(N)=O)C(=O)Nc1ccc(OCc2cccc(F)c2)c(F)c1 (centres undefined) | -10.3
58 | N#Cc1cccnc1N1CCN(S(=O)(=O)NCc2ccccc2)CC1 | -18.9
59 | COCCN1CCc2c(CNC(=O)c3nccn3C)cncc2C1 | 3.83
60 | c1csc(-c2nc(CN3CCOC(Cn4cccn4)C3)cs2)c1 (centres undefined) | -8.48
61 | Cn1cc(C2CCCN2C(=O)c2cnc(-c3ccco3)s2)cn1 (centres undefined) | -4.49
62 | O=C(O)C1(Cc2cccc(-c3cccs3)c2)CCCNC1 (centres undefined) | 14.3
63 | CNC(=O)[C@@]12CCC3(CCN(C(=O)COC)CC3)[C@@H]1CN(S(C)(=O)=O)C2 | 4.47
64 | CCc1ccc(C(=O)NC2CCN(c3cnn(C)c3)C2=O)o1 (centres undefined) | -9
65 | Cn1cc(C(=O)NCCc2csc(-c3ccccc3)n2)ccc1=O | -2.1
66 | Cc1cc(C(=O)N2CCC(CCC(=O)NCCN(C)C)CC2)ccc1O | 24.4
67 | CCC(C)N(Cc1cccnc1)C(=O)c1ccc(OC)cc1O (centres undefined) | -9.19
68 | Cc1cc(NCc2cc3n(n2)CCCN(C(=O)C2CCC2)C3)ncn1 | 0.388
69 | Cn1c(N)nnc1SC1CCCN(c2ccccc2F)C1=O (centres undefined) | -1.56
70 | CSC1(CNC(=O)NC(C)Cc2cccc(F)c2)CCOCC1 (centres undefined) | 0.72
71 | CC(=O)Nc1ccc([C@@H](O)[C@H]2COCC(=O)N2CC(C)C)cc1 | 1.58
72 | CCc1ccc(CN2CCN(C(=O)C(C)C)[C@@H]3CS(=O)(=O)C[C@@H]32)cc1 | 14.5
73 | CN(Cc1nc(CC2CC2)no1)CC1Cc2ccccc2O1 (centres undefined) | -6.88
74 | CCc1nc(NC2CC(=O)N(CC3CCCCC3)C2)ncc1C (centres undefined) | -8.17
75 | COC1CCN(C(=O)c2cc(-c3ccc(Cl)cc3)on2)CC1 | -8.24
76 | CN(C)Cc1cc(=O)n2c(n1)CN(S(=O)(=O)C1CC1)CCC2 | -6.08
77 | CC(C)c1nccc(CN(C)Cc2cccc(-n3cccn3)c2)n1 | -1.47
78 | c1cnnc(N[C@@H]2CC[C@@H]3CN(Cc4ccc5cc[nH]c5c4)C[C@@H]32)c1 | -9.52
79 | CC(C)Oc1cccc(-c2nc3c([nH]2)CCCNC3=O)c1 | 5.17
